According to patent US12187728B2 (Raze Therapeutics, Inc., priority 2015, dated 2025):

These compounds were tested against T1, Human MTHFD2 (Homo sapiens, UniProt P13995) (assay: MTHFD2 Activity Assay (dehydrogenase activity, diaphorase/resazurin coupled fluorescence)). Settings: inhibitory activity (IC50 and/or binding constant); 0.2 nM MTHFD2, 11 concentrations.
T1 construct: residues 36-350 in Uniport ID P13995; His6 (N); made in house; host or cells: E. coli
T1 sequence (P13995 36-350): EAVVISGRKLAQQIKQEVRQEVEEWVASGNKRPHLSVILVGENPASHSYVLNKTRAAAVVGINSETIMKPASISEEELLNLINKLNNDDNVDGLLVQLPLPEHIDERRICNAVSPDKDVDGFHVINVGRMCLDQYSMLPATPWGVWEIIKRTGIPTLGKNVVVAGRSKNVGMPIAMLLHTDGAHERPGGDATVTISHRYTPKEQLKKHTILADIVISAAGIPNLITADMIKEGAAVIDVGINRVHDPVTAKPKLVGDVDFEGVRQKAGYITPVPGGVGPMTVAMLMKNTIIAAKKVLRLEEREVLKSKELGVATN
Assay type: biochemical
How it was run: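 Resorufin fluorescence (ex 525, em 598 nm) reports NADH formed by the dehydrogenase via diaphorase coupling. Enzyme (0.2 nM, residues 36-350, N-His6) sat with compound 15 min before 70 μM CH2-THF and 1 mM NAD+ started a 30 min reaction. IC50s come from 4-parameter fits over 11 concentrations.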

Row | Compound | IC50
1 | Cn1c(Nc2ccccn2)nc2c1c(=O)n(Cc1ccc(Cl)c(Cl)c1)c(=O)n2C [Example 146, 1-(3,4-dichlorobenzyl)-3,7-dimethyl-8-(pyridin-2-ylamino)-1H-purine-2,6(3H,7H)-dione] | 10 to 1000 nM
2 | Cn1c(NC2(C(=O)O)CC2)nc2c1c(=O)n(Cc1ccc(Cl)c(Cl)c1)c(=O)n2C [Example 147, 1-(1-(3,4-dichlorobenzyl)-3,7-dimethyl-2,6-dioxo-2,3,6,7-tetrahydro-1H-purin-8-ylamino)cyclopropanecarboxylic acid] | 10 to 1000 nM
3 | Cn1c(NC2(C(=O)O)CCCC2)nc2c1c(=O)n(Cc1ccc(Cl)c(Cl)c1)c(=O)n2C [Example 148, 1-(1-(3,4-dichlorobenzyl)-3,7-dimethyl-2,6-dioxo-2,3,6,7-tetrahydro-1H-purin-8-ylamino)cyclopentanecarboxylic acid] | 10 to 1000 nM
4 | Cn1c(NC2(C(=O)O)CCCC2)nc2c1c(=O)n(Cc1ccc(C(F)(F)F)cc1)c(=O)n2C [Example 149, 1-(3,7-dimethyl-2,6-dioxo-1-(4-(trifluoromethyl)benzyl)-2,3,6,7-tetrahydro-1H-purin-8-ylamino)cyclopentanecarboxylic acid] | > 10000 nM
5 | Cn1c(Nc2cccc(N)n2)nc2c1c(=O)n(Cc1ccc(Cl)c(Cl)c1)c(=O)n2C [Example 150, 8-(6-aminopyridin-2-ylamino)-1-(3,4-dichlorobenzyl)-3,7-dimethyl-1H-purine-2,6(3H,7H)-dione] | 10 to 1000 nM
6 | Cn1c(NC(C(=O)O)C2CCCCC2)nc2c1c(=O)n(Cc1ccc(C(F)(F)F)cc1)c(=O)n2C (stereo not drawn) [Example 151, 2-cyclohexyl-2-((3,7-dimethyl-2,6-dioxo-1-(4-(trifluoromethyl)benzyl)-2,3,6,7-tetrahydro-1H-purin-8-yl)amino)acetic acid] | > 10000 nM
7 | Cn1cnc2c1c(=O)n(Cc1ccc(Cl)c(Cl)c1)c(=O)n2C [Example 152, 1-(3,4-dichlorobenzyl)-3,7-dimethyl-1H-purine-2,6(3H,7H)-dione] | 1000 to 5000 nM
8 | Cn1c(N)nc2c1c(=O)n(Cc1ccc(Cl)c(Cl)c1)c(=O)n2C [Example 153, 8-amino-1-(3,4-dichlorobenzyl)-3,7-dimethyl-1H-purine-2,6(3H,7H)-dione] | 5000 to 10000 nM
9 | COC(=O)c1ccc(Nc2nc3c(c(=O)n(Cc4ccc(Cl)c(Cl)c4)c(=O)n3C)n2C)cc1 [Example 154, Methyl 4-(1-(3,4-dichlorobenzyl)-3,7-dimethyl-2,6-dioxo-2,3,6,7-tetrahydro-1H-purin-8-ylamino)benzoate] | 1000 to 5000 nM
10 | CN(C)CCc1nc2c(c(=O)n(Cc3ccc(Cl)c(Cl)c3)c(=O)n2C)n1C [Example 157, 1-(3,4-dichlorobenzyl)-8-(2-(dimethylamino)ethyl)-3,7-dimethyl-1H-purine-2,6(3H,7H)-dione] | 1000 to 5000 nM
11 | Cn1c(CCO)nc2c1c(=O)n(Cc1ccc(Cl)c(Cl)c1)c(=O)n2C [Example 158, 1-(3,4-dichlorobenzyl)-8-(2-hydroxyethyl)-3,7-dimethyl-1H-purine-2,6(3H,7H)-dione] | 10 to 1000 nM
12 | Cn1c(CCN2CCOCC2)nc2c1c(=O)n(Cc1ccc(Cl)c(Cl)c1)c(=O)n2C [Example 159, 1-(3,4-dichlorobenzyl)-3,7-dimethyl-8-(2-morpholinoethyl)-1H-purine-2,6(3H,7H)-dione] | 10 to 1000 nM
13 | C=Cc1nc2c(c(=O)n(Cc3ccc(Cl)c(Cl)c3)c(=O)n2C)n1C [Example 160, 1-(3,4-dichlorobenzyl)-3,7-dimethyl-8-vinyl-1H-purine-2,6(3H,7H)-dione] | 1000 to 5000 nM
14 | COC(=O)c1nc2c(c(=O)n(Cc3ccc(Cl)c(Cl)c3)c(=O)n2C)n1C [Example 161, Methyl 1-(3,4-dichlorobenzyl)-3,7-dimethyl-2,6-dioxo-2,3,6,7-tetrahydro-1H-purine-8-carboxylate] | 1000 to 5000 nM
15 | CCOC(=O)Cc1nc2c(c(=O)n(Cc3ccc(Cl)c(Cl)c3)c(=O)n2C)n1C [Example 162, ethyl 2-(1-(3,4-dichlorobenzyl)-3,7-dimethyl-2,6-dioxo-2,3,6,7-tetrahydro-1H-purin-8-yl)acetate] | 5000 to 10000 nM
16 | COC(=O)c1cc(Cn2c(=O)c3c(nc(NCCCO)n3C)n(C)c2=O)ccc1Cl [Example 165, Methyl 2-chloro-5-({8-[(3-hydroxypropyl)amino]-3,7-dimethyl-2,6-dioxo-2,3,6,7-tetrahydro-1H-purin-1-yl}methyl)benzoate] | 1000 to 5000 nM
17 | Cn1c(NCCCO)nc2c1c(=O)n(Cc1ccc(Cl)c(CO)c1)c(=O)n2C [Example 166, 1-{[4-chloro-3-(hydroxymethyl)phenyl]methyl}-8-[(3-hydroxypropyl)amino]-3,7-dimethyl-2,3,6,7-tetrahydro-1H-purine-2,6-dione] | > 10000 nM

Row | Compound | IC50
18 | Cn1c(NCCCO)nc2ncn(Cc3ccc(Cl)c(Cl)c3)c(=O)c21 [Example 167, 1-[(3,4-dichlorophenyl)methyl]-8-[(3-hydroxypropyl)amino]-7-methyl-6,7-dihydro-1H-purin-6-one] | > 10000 nM
19 | C[C@@H](Nc1nc2c(c(=O)n(Cc3ccc(Cl)c(Cl)c3)c(=O)n2C)n1C)C(=O)O [Example 169, (R)-2-(1-(3,4-dichlorobenzyl)-3,7-dimethyl-2,6-dioxo-2,3,6,7-tetrahydro-1H-purin-8-ylamino)propanoic acid] | 10 to 1000 nM
20 | Cn1c(Nc2ccncc2)nc2c1c(=O)n(Cc1cc3ccccc3[nH]1)c(=O)n2C [Example 174, 1-((1H-indol-2-yl)methyl)-3,7-dimethyl-8-(pyridin-4-ylamino)-1H-purine-2,6(3H,7H)-dione] | 10 to 1000 nM
21 | Cn1c(Nc2ccncc2)nc2c1c(=O)n(Cc1cc3cc(Cl)ccc3[nH]1)c(=O)n2C [Example 176, 1-((5-chloro-1H-indol-2-yl)methyl)-3,7-dimethyl-8-(pyridin-4-ylamino)-1H-purine-2,6(3H,7H)-dione] | 10 to 1000 nM
22 | Cc1ccc2[nH]c(Cn3c(=O)c4c(nc(Nc5ccncc5)n4C)n(C)c3=O)cc2c1 [Example 181, 3,7-dimethyl-1-((5-methyl-1H-indol-2-yl)methyl)-8-(pyridin-4-ylamino)-1H-purine-2,6(3H,7H)-dione] | 10 to 1000 nM
23 | COc1ccc2[nH]c(Cn3c(=O)c4c(nc(N[C@H]5CC[C@@H](O)C5)n4C)n(C)c3=O)cc2c1 [Example 182, 8-((1S,3R)-3-hydroxycyclopentylamino)-1-((5-methoxy-1H-indol-2-yl)methyl)-3,7-dimethyl-1H-purine-2,6(3H,7H)-dione] | 10 to 1000 nM
24 | COc1ccc2[nH]c(Cn3c(=O)c4c(nc(Nc5ccncc5)n4C)n(C)c3=O)cc2c1 [Example 183, 1-((5-methoxy-1H-indol-2-yl)methyl)-3,7-dimethyl-8-(pyridin-4-ylamino)-1H-purine-2,6(3H,7H)-dione] | 10 to 1000 nM
25 | Cc1ccc2c(c1)cc(Cn1c(=O)c3c(nc(N[C@H]4CC[C@@H](O)C4)n3C)n(C)c1=O)n2C [Example 185, 1-((1,5-dimethyl-1H-indol-2-yl)methyl)-8-((1S,3R)-3-hydroxycyclopentylamino)-3,7-dimethyl-1H-purine-2,6(3H,7H)-dione] | 10 to 1000 nM
26 | COc1ccc2c(c1)cc(Cn1c(=O)c3c(nc(N[C@H]4CC[C@@H](O)C4)n3C)n(C)c1=O)n2C [Example 188, 8-((1S,3R)-3-hydroxycyclopentylamino)-1-((5-methoxy-1-methyl-1H-indol-2-yl)methyl)-3,7-dimethyl-1H-purine-2,6(3H,7H)-dione] | 1000 to 5000 nM
27 | Cn1c(Nc2cc[nH]c(=O)n2)nc2c1c(=O)n(Cc1cc3ccccc3[nH]1)c(=O)n2C [Example 189, 1-((1H-indol-2-yl)methyl)-3,7-dimethyl-8-(2-oxo-1,2-dihydropyrimidin-4-ylamino)-1H-purine-2,6(3H,7H)-dione] | 10 to 1000 nM
28 | Cc1ccc2[nH]c(Cn3c(=O)c4c(nc(Nc5cc[nH]c(=O)n5)n4C)n(C)c3=O)cc2c1 [Example 190, 3,7-dimethyl-1-((5-methyl-1H-indol-2-yl)methyl)-8-(2-oxo-1,2-dihydropyrimidin-4-ylamino)-1H-purine-2,6(3H,7H)-dione] | 10 to 1000 nM
29 | Cn1c(N2CCC(O)CC2)nc2c1c(=O)n(Cc1cc3ccccc3[nH]1)c(=O)n2C [Example 191, 1-((1H-indol-2-yl)methyl)-8-(4-hydroxypiperidin-1-yl)-3,7-dimethyl-1H-purine-2,6(3H,7H)-dione] | 10 to 1000 nM
30 | Cn1c(N2CC(O)C2)nc2c1c(=O)n(Cc1cc3ccccc3[nH]1)c(=O)n2C [Example 192, 1-((1H-indol-2-yl)methyl)-8-(3-hydroxyazetidin-1-yl)-3,7-dimethyl-1H-purine-2,6(3H,7H)-dione] | 1000 to 5000 nM
31 | Cc1ccc2[nH]c(Cn3c(=O)c4c(nc(N5CCC(O)CC5)n4C)n(C)c3=O)cc2c1 [Example 193, 8-(4-hydroxypiperidin-1-yl)-3,7-dimethyl-1-((5-methyl-1H-indol-2-yl)methyl)-1H-purine-2,6(3H,7H)-dione] | 10 to 1000 nM
32 | Cc1ccc2[nH]c(Cn3c(=O)c4c(nc(N5CC(O)C5)n4C)n(C)c3=O)cc2c1 [Example 194, 8-(3-hydroxyazetidin-1-yl)-3,7-dimethyl-1-((5-methyl-1H-indol-2-yl)methyl)-1H-purine-2,6(3H,7H)-dione] | 1000 to 5000 nM
33 | Cn1c(Nc2ncn[nH]2)nc2c1c(=O)n(Cc1cc3ccccc3[nH]1)c(=O)n2C [Example 195, 1-((1H-indol-2-yl)methyl)-8-(2H-1,2,4-triazol-3-ylamino)-3,7-dimethyl-1H-purine-2,6(3H,7H)-dione] | 1000 to 5000 nM
